In article PMC5909127, “Optimization of a “bump-and-hole” approach to allele-selective BET bromodomain inhibition” (Chemical Science, 2018):

Assays:
[1] = target: WT BET bromodomains (BD1 and BD2 of BRD2, BRD3 and BRD4); test: competitive AlphaLISA (Bio-JQ1 displacement); assay type: binding, human; conditions: mean and SD of all somatic bromodomains; active enantiomer concentration
[2] = target: BRD2 BD1 WT (Homo sapiens, UniProt P25440); test: ITC; assay type: binding
[3] = target: WT somatic BET bromodomains; test: ITC; conditions: mean and SD of all somatic bromodomains
[4] = target: BRD2 BD2 L/V (Homo sapiens, UniProt P25440, L383V); test: ITC; assay type: binding; conditions: ITC
Sequence of BRD2 BD2 L/V (P25440 344-455 L383V): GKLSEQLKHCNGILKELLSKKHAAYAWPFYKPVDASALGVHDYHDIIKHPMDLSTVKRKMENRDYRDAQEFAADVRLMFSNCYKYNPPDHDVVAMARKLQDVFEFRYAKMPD

[5] = target: T1, BRD2 BD1 L/V (Homo sapiens, UniProt P25440, L110V); test: ITC; assay type: binding; conditions: ITC
T1 sequence (P25440 71-176 L110V limits assumed): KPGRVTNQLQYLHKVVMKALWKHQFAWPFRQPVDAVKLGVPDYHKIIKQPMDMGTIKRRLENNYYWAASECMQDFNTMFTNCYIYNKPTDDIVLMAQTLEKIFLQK

[6] = test system: L/V somatic BET bromodomains; test: ITC; conditions: L/V minus WT
[7] = target: BRDT BD2 WT (Homo sapiens, UniProt Q58F21); test: competitive AlphaLISA; assay type: binding; conditions: read-out: AlphaLISA pIC50 Value BRDT BD2 WT (converted)
[8] = target: T2, BRD3 BD1 L/V (Homo sapiens, UniProt Q15059, L70V); test: ITC; assay type: binding; conditions: ITC
T2 sequence (Q15059 24-144 L70V limits assumed): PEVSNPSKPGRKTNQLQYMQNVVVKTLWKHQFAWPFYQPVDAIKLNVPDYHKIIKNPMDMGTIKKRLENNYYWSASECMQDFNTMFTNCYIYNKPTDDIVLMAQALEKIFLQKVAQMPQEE

[9] = target: BRDT BD2 L/V (Homo sapiens, UniProt Q58F21, L306V); test: competitive AlphaLISA; assay type: binding; conditions: read-out: AlphaLISA pIC50 Value BRDT BD2 L/V (converted)
[10] = target: T3, BRD3 BD1 WT (Homo sapiens, UniProt Q15059); test: competitive AlphaLISA; assay type: binding; conditions: read-out: AlphaLISA pIC50 Value BRD3 BD1 WT (converted)
T3 sequence (Q15059 24-144): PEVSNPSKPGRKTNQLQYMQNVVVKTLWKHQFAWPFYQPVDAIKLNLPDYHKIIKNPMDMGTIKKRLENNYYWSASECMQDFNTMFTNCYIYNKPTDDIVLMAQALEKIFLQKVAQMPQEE

[11] = target: T4, BRD3 BD2 WT (Homo sapiens, UniProt Q15059); test: ITC; assay type: binding
T4 sequence (Q15059 306-416): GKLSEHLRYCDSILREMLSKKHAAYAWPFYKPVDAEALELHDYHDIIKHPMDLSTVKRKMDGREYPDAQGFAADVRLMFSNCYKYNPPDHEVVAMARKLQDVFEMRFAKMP

[12] = test system: L/V BET bromodomains (BD1 and BD2 of BRD2, BRD3 and BRD4); test: competitive AlphaLISA (Bio-JQ1 displacement); assay type: binding, human; conditions: L/V minus WT
[13] = in vitro; conditions: PAMPA, pH 7.4
[14] = in vitro; conditions: BALB/c, mouse, plasma, pH 7.4
[15] = target: T5, BRD3 BD2 L/V (Homo sapiens, UniProt Q15059, L345V); test: ITC; assay type: binding; conditions: ITC
T5 sequence (Q15059 306-416 L345V limits assumed): as the sequence (Q15059 306-416) above, with L40V counted along it

[16] = target: T4, BRD3 BD2 WT; test: competitive AlphaLISA; assay type: binding; conditions: read-out: AlphaLISA pIC50 Value BRD3 BD2 WT (converted)
[17] = target: T5, BRD3 BD2 L/V; test: competitive AlphaLISA; assay type: binding; conditions: read-out: AlphaLISA pIC50 Value BRD3 BD2 L/V (converted)
[18] = target: T6, BRD2 BD2 WT (Homo sapiens, UniProt P25440); test: competitive AlphaLISA; assay type: binding; conditions: read-out: AlphaLISA pIC50 Value BRD2 BD2 WT (converted)
T6 sequence (P25440 344-455): as the sequence (P25440 344-455 L383V) above, with V40L counted along it

[19] = target: T6, BRD2 BD2 WT; test: ITC; assay type: binding
[20] = target: T1, BRD2 BD1 L/V; test: competitive AlphaLISA; assay type: binding; conditions: read-out: AlphaLISA pIC50 Value BRD2 BD1 L/V (converted)
[21] = target: T2, BRD3 BD1 L/V; test: competitive AlphaLISA; assay type: binding; conditions: read-out: AlphaLISA pIC50 Value BRD3 BD1 L/V (converted)
[22] = target: T3, BRD3 BD1 WT; test: ITC; assay type: binding

Sequence of BRD2 BD1 WT (P25440 71-176): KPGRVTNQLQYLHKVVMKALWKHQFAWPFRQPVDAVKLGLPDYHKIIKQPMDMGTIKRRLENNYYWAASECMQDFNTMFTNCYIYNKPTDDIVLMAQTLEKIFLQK

With CCNC(=O)[C@H](C)[C@@H]1N=C(c2ccc(Cl)cc2)c2cc(OC)ccc2-n2c(C)nnc21 (relative stereo) [Compound 16] as the compound, how does the “AlphaLISA pIC50 ± SD WT” value [1] read?
The value was 5.3 ± 0.2.

What about the “ΔH BRD2 BD1 WT” value ([2]; ITC) of the same compound?
Its value is -4.5 kcal/mol.

And the “N BRD2 BD1 WT” value ([2]; ITC stoichiometry)?
Its value is 0.94.

And the Kd ([2]; ITC, 30°C, read-out: Kd BRD2 BD1 WT)?
Its Kd is 2200 nM.

And the “ITC pKd ± SD WT” value [3]?
Its value is 5.6 ± 0.3.

What about the “ΔH BRD2 BD2 L/V” value [4] of the same compound?
The value was -9.9 kcal/mol.

And the Kd ([4]; 30°C, read-out: Kd BRD2 BD2 L/V)?
Its Kd is 190 nM.

And the “ΔH BRD2 BD1 L/V” value [5]?
The value was -16.3 kcal/mol.

And the Kd ([5]; 30°C, read-out: Kd BRD2 BD1 L/V)?
Its Kd is 120 nM.

And the “ITC pKd ± SD Δ” value [6]?
Its value is 1.3 ± 0.3.

What about the IC50 [7] of the same compound?
Its IC50 is 7940 nM.

What about the “ΔH BRD3 BD1 L/V” value [8] of the same compound?
Its value is -19.0 kcal/mol.

And the Kd ([8]; 30°C, read-out: Kd BRD3 BD1 L/V)?
Its Kd is 60 nM.

And the IC50 [9]?
The IC50 was 398 nM.

What about the IC50 [10] of the same compound?
Its IC50 is 2000 nM.

What about the “ΔH BRD3 BD2 WT” value ([11]; ITC) of the same compound?
The value was -6.0 kcal/mol.

What about the “N BRD3 BD2 WT” value ([11]; ITC stoichiometry) of the same compound?
The value was 0.88.

What about the Kd ([11]; ITC, 30°C, read-out: Kd BRD3 BD2 WT) of the same compound?
Its Kd is 1500 nM.

And the “AlphaLISA pIC50 ± SD Δ” value [12]?
The value was 1.4 ± 0.2.

And the Papp [13]?
Its Papp is 2.6 ×10⁻⁶ cm/s.

What about the half-life at 50 µM [14] of the same compound?
The half-life at 50 µM was over 3 h.

And the “ΔH BRD3 BD2 L/V” value [15]?
Its value is -12.9 kcal/mol.

What about the Kd ([15]; 30°C, read-out: Kd BRD3 BD2 L/V) of the same compound?
The Kd was 130 nM.

What about the IC50 [16] of the same compound?
The IC50 was 3980 nM.

What about the IC50 [17] of the same compound?
The IC50 was 79.4 nM.

And the IC50 [18]?
Its IC50 is 5010 nM.

And the “ΔH BRD2 BD2 WT” value ([19]; ITC)?
Its value is -3.9 kcal/mol.

And the “N BRD2 BD2 WT” value ([19]; ITC stoichiometry)?
The value was 0.65.

And the Kd ([19]; ITC, 30°C, read-out: Kd BRD2 BD2 WT)?
The Kd was 2400 nM.

What about the IC50 [20] of the same compound?
Its IC50 is 398 nM.

What about the IC50 [21] of the same compound?
The IC50 was 100 nM.

And the “ΔH BRD3 BD1 WT” value ([22]; ITC)?
Its value is -8.8 kcal/mol.

And the “N BRD3 BD1 WT” value ([22]; ITC stoichiometry)?
Its value is 0.81.

And the Kd ([22]; ITC, 30°C, read-out: Kd BRD3 BD1 WT)?
Its Kd is 1600 nM.
